What was measured:
[1] = xanthine oxidase/acetaldehyde spectrophotometric free radical scavenging assay; format: biochemical
Procedure: The scavenging of free super oxide radicals is quantitated spectrometrically and expressed in terms of percentage of radicals scavenged. Assays were performed with 1% (w/v) and 0.1% (w/v) dilutions of the dried extract, which yielded up to 100% scavenging activity and up to 99% scavenging activity respectively.

[2] = system: hen's-egg chorioallantoic membrane (CAM); experiment: hen's-egg chorioallantoic membrane (CAM) irritation model with 15% lactic acid as standard irritant; settings: oenothein B extract at 1% (weight to volume) dilution; applied before the irritant (15% lactic acid), simulating prophylactic use
Procedure: In the hen's-egg chorioallantoic membrane (CAM) model, in which the CAM is treated with 15% lactic acid as a standard irritant, the development of manifestations of membrane irritation were tracked and scored according to published methods for assessing irritancy. A sample of the oenothein B extract from Canadian Willow herb described in Example 1 was tested at a 1% (weight to volume) dilution for activity in the CAM model.

Substance: oenothein B
- scavenging activity (percentage of superoxide radicals scavenged) ([1]; 0.1% (w/v) dilution of the dried extract): up to 99%
- scavenging activity (percentage of superoxide radicals scavenged) ([1]; 1% (w/v) dilution of the dried extract): up to 100%
- decrease in irritation [2]: up to 70%

Source: patent US20200179426A1, “METHODS OF USE FOR OENOTHEIN A AND B FROM EPILOBIUM SPECIES” (EPILOBIUM, INC., priority 2017, published 2020)
